This is an account of results in PMC7170901, “Design and efficient synthesis of pyrazoline and isoxazole bridged indole C-glycoside hybrids as potential anticancer agents” (Scientific Reports, 2020).

For orientation: viability means a read-out of living cells in per cent, often relative to untreated cells.

Format in all cases: cell-based
Data set [1] relates to MCF-7 breast cancer cells. Nature of the data set: MTT cell viability assay in MCF-7 cells. The settings on record: Homo sapiens, MCF7, read-out: Cell Viability (%) ± SD. For orientation: Formazan colour is commonly taken as a measure of viable cells.
For data set [2], the system named is MDA-MB-231 (human breast cancer) cell line. The data set is described as follows: MTT cell viability assay in MDA-MB-231 cells. The note with it: for viability at 10 µM / viability at 25 µM / viability at 50 µM: MDA-MB-231, 72 h; for viability at 10 µM / viability at 25 µM / viability at 50 µM / Cell Viability (%) ± SD: 72 h, MTT. Here is the method: IC50 values were determined by plotting values of percent cell viability against concentration of each of these compounds. […] The experiments were performed in triplicates, n = 3 and ± SE value was calculated for each data point.
The human breast cancer cell line MDA-MB-231 were cultured in Dulbecco’s Modified Eagle’s Medium (DMEM) (Gibco, St. Louis, USA) supplemented with 10% heat inactivated FBS (Fetal Bovine Serum, Gibco, USA) and 1% penicillin-streptomycin (Gibco Canada) in humidified CO2 incubator at 37 °C. The cells were maintained as a monolayer in 100 mm culture plate. The cells used for each experiment were of less than 8 passage number. Sub culturing of cells was performed every third day, followed by trypsin EDTA treatment.
Cell viability assay was performed as per standard protocols. […] Ltd, India). In brief, this is a homogeneous, colorimetric method for determining the number of viable cells in proliferation, cytotoxicity or chemosensitivity assays. MTT is bio reduced by cells into a formazan product that is soluble in the tissue culture medium. […] The absorbance of the formazan product at 595 nm was measured directly from 96-well assay plates without additional processing using a multimode plate reader (Bio-Rad) (iMark, India), as absorbance is directly proportional to the number of viable cells in culture. The percentage of viable cells in each group is determined with respect to the untreated control cells.

Data set [3] is described as follows: MTT cell viability assay in normal MCF-10A cells. The note with it: human, MCF-10A normal mammary epithelial cells, read-out: Cell Viability (%) ± SD. The text has this:
(§1) MDA-MB-231 represents a specific subtype, known as the triple negative breast cancer (TNBC). […] We also included normal mammary epithelial MCF-10A cells in our experiments to confirm if the growth-inhibitory activities of the selected compounds are truly cancer cell-specific. […] Furthermore, none of these compounds did have any growth inhibitory activity against normal breast epithelial cell (MCF-10A). The IC50 values for these compounds against MDA-MB-231 cells (Fig. 2) are also included in Table 4 for comparison. Cell viability assay was performed as per standard protocols. After 72 h of cell incubation in the presence or absence of each compound, cell viability was evaluated by using MTT ((3-(4,5-dimethylthiazol-2-yl)-2,5-diphenyltetrazolium bromide)) (Himedia Pvt. Ltd, India). In brief, this is a homogeneous, colorimetric method for determining the number of viable cells in proliferation, cytotoxicity or chemosensitivity assays. MTT is bio reduced by cells into a formazan product that is […]. After 72 h of compound treatment, the medium was removed and 100 μL of MTT (0.5 mg ml^−1 in media) was added to the cells and kept in the dark for 3 h at 37 °C in the CO2 incubator and the formazan formed was dissolved in 100 μL DMSO (Dimethyl Sulfoxide). The absorbance of the formazan product at 595 nm was measured directly from 96-well assay plates without additional processing using a multimode plate reader (Bio-Rad) (iMark, India), as absorbance is directly proportional to the number of viable cells in culture. The percentage of viable cells in each group is determined with respect to the untreated control cells.

A further data set has as its system MDA-MB-453 cells. Nature of the data set: MTT cell viability assay in MDA-MB-453 cells. The note with it: Homo sapiens, read-out: Cell Viability (%) ± SD.
Excerpt: as §1

[4] abbreviates: Homo sapiens, MDA-MB-231, 10 µM, read-out: Cell Viability (%) ± SD.
The mark [5] stands for this setting: Homo sapiens, MDA-MB-231, 25 µM, read-out: Cell Viability (%) ± SD.
Setting [6] is: Homo sapiens, MDA-MB-231, 50 µM, read-out: Cell Viability (%) ± SD.

Take `O=C(/C=C/c1c[nH]c2ccc([N+](=O)[O-])cc12)C[C@@H]1O[C@H](CO)[C@H](O)[C@H](O)[C@H]1O` [Compound 14, (E)-4-(5-nitro-1H-indol-3-yl)-1-((2S,3R,4R,5R,6R)-3,4,5-trihydroxy-6-(hydroxymethyl)tetrahydro-2H-pyran-2-yl)but-3-en-2-one]: the viability at 1 µM in data set [1] (MCF-7, 1 µM) turned out to be 100 ± 4.5%; with MDA-MB-453 cells (MDA-MB-453, 1 µM) it was 80.8 ± 3.2%. The viability at 10 µM in data set [1] (MCF-7, 10 µM) was found to be 69.8 ± 1.8%; in data set [2] (setting [4]), 73.6 ± 11.8%; with MDA-MB-453 cells (MDA-MB-453, 10 µM) it was 82.2 ± 11.5%. The viability at 25 µM in data set [1] (MCF-7, 25 µM) amounted to 66.8 ± 3%; in data set [2] (setting [5]), 59 ± 12.5%; with MDA-MB-453 cells (MDA-MB-453, 25 µM), 65.3 ± 5.8%. In data set [2] (setting [6]), the viability at 50 µM was found to be 60.6 ± 5.61%. Further, the viability at 72 h, 25 µM in data set [3] (25 µM) stood at 86.8 ± 2.8%. The viability at 72 h, 50 µM in data set [3] (50 µM) amounted to 84.6 ± 0.7%. In addition, the viability at 72 h, 100 µM in data set [3] (100 µM) was determined as 80 ± 1.5%.

For the compound `COCCn1c2c([n+](Cc3cnccn3)c1C)C(=O)c1ccccc1C2=O` [YM155, reference compound], the viability at 0.02 µM in data set [1] (MCF-7, positive control at 20 nM) was determined as 37.2 ± 1.7%; in data set [2] (Homo sapiens, MDA-MB-231, MDA-MB-231, positive control at 20 nM, read-out: Cell Viability (%) ± SD), 27.4 ± 4.93%; in the data set on MDA-MB-453 cells (MDA-MB-453, positive control at 20 nM), 33.2 ± 1.5%. For the same compound, the viability at 72 h, 0.02 µM in data set [3] (positive control at 20 nM) worked out at 48.2 ± 1.6%.

With `OC[C@H]1O[C@@H](CC2=NNC(c3c[nH]c4ccc(Cl)cc34)C2)[C@@H](O)[C@@H](O)[C@@H]1O` (stereo partly shown) [Compound 32, (2 S,3 S,4 R,5 S,6 R)-2-((5-(5-chloro-1H-indol-3-yl)-4,5-dihydro-1H-pyrazol-3-yl)methyl)-6-(hydroxymethyl)tetrahydro-2H-pyran-3,4,5-triol], the viability at 10 µM in data set [2] (setting [4]) was determined as 74.6 ± 4.7%. In addition, in data set [2] (setting [5]), the viability at 25 µM turned out to be 78.5 ± 4.44%. Besides, the viability at 50 µM in data set [2] (setting [6]) came out at 66.5 ± 7.27%.

Consider `OC[C@H]1O[C@@H](CC2=NNC(c3c[nH]c4ccc(Br)cc34)C2)[C@H](O)[C@@H](O)[C@@H]1O` (stereo partly shown) [Compound 23, (2 S,3 R,4 R,5 S,6 R)-2-((5-(5-bromo-1H-indol-3-yl)-4,5-dihydro-1H-pyrazol-3-yl)methyl)-6-(hydroxymethyl)tetrahydro-2H-pyran-3,4,5-triol], for which the viability at 10 µM in data set [2] (setting [4]) is 105 ± 11.3%. For the same compound, in data set [2] (setting [5]), the viability at 25 µM is 88.8 ± 2.22%. For the same compound, in data set [2] (setting [6]), the viability at 50 µM came out at 81.5 ± 5.45%.

With `O=C(/C=C/c1c[nH]c2ccc(Br)cc12)C[C@@H]1O[C@H](CO)[C@@H](O)[C@H](O)[C@H]1O` [Compound 11, (E)-4-(5-bromo-1H-indol-3-yl)-1-((2S,3R,4R,5S,6R)-3,4,5-trihydroxy-6-(hydroxymethyl)tetrahydro-2H-pyran-2-yl)but-3-en-2-one], in data set [2] (setting [4]), the viability at 10 µM came to 100 ± 23%. The viability at 25 µM in data set [2] (setting [5]) came out at 100 ± 8.93%. For the same compound, in data set [2] (setting [6]), the viability at 50 µM came to 108 ± 2.89%.

For `O=C(/C=C/c1c[nH]c2ccc(Cl)cc12)C[C@@H]1O[C@H](CO)[C@@H](O)[C@H](O)[C@H]1O` [Compound 12, (E)-4-(5-chloro-1H-indol-3-yl)-1-((2S,3R,4R,5S,6R)-3,4,5-trihydroxy-6-(hydroxymethyl)tetrahydro-2H-pyran-2-yl)but-3-en-2-one], the viability at 10 µM in data set [2] (setting [4]) is 79.2 ± 8.51%. The viability at 25 µM in data set [2] (setting [5]) amounted to 89.8 ± 8.75%. Further, the viability at 50 µM in data set [2] (setting [6]) turned out to be 74.8 ± 7.02%.

Consider `OC[C@H]1O[C@@H](CC2=NNC(c3c[nH]c4ccc(Cl)cc34)C2)[C@H](O)[C@@H](O)[C@H]1O` (stereo partly shown) [Compound 28, (2 S,3 R,4 R,5 R,6 R)-2-((5-(5-chloro-1H-indol-3-yl)-4,5-dihydro-1H-pyrazol-3-yl)methyl)-6-(hydroxymethyl)tetrahydro-2H-pyran-3,4,5-triol], for which the viability at 10 µM in data set [2] (setting [4]) is 99.5 ± 10.2%. For the same compound, the viability at 25 µM in data set [2] (setting [5]) worked out at 95.2 ± 13.6%. In addition, the viability at 50 µM in data set [2] (setting [6]) is 63.4 ± 17.5%.

In the case of `OC[C@H]1O[C@@H](Cc2cc(-c3c[nH]c4ccc(Br)cc34)on2)[C@@H](O)[C@@H](O)[C@@H]1O` [Compound 43, (2 S,3 S,4 R,5 S,6 R)-2-((5-(5-bromo-1H-indol-3-yl)isoxazol-3-yl)methyl)-6-(hydroxymethyl) tetrahydro-2H-pyran-3,4,5-triol], the viability at 10 µM in data set [2] (setting [4]) was determined as 96.6 ± 3.98%. In addition, in data set [2] (setting [5]), the viability at 25 µM was determined as 85.2 ± 2.93%. Also, in data set [2] (setting [6]), the viability at 50 µM came to 95.7 ± 3.26%.

On to `OC[C@H]1O[C@@H](Cc2cc(-c3c[nH]c4ccc(Br)cc34)on2)[C@H](O)[C@@H](O)[C@@H]1O` [Compound 35, (2 S,3 R,4 R,5 S,6 R)-2-((5-(5-bromo-1H-indol-3-yl)isoxazol-3-yl)methyl)-6-(hydroxy-methyl)tetrahydro-2H-pyran-3,4,5-triol], for which, in data set [2] (setting [4]), the viability at 10 µM was found to be 95.5 ± 4.91%. The viability at 25 µM in data set [2] (setting [5]) amounted to 95.3 ± 3.6%. Besides, the viability at 50 µM in data set [2] (setting [6]) is 93.9 ± 9.08%.

Take `O=C(/C=C/c1c[nH]c2ccccc12)C[C@@H]1O[C@H](CO)[C@@H](O)[C@H](O)[C@@H]1O` [Compound 17, (E)-4-(1H-indol-3-yl)-1-((2S,3S,4R,5S,6R)-3,4,5-trihydroxy-6-(hydroxymethyl)tetrahydro-2H-pyran-2-yl)but-3-en-2-one]: the viability at 10 µM in data set [2] (setting [4]) worked out at 84.1 ± 4.09%. Further, the viability at 25 µM in data set [2] (setting [5]) stood at 80.5 ± 2.58%. Further, the viability at 50 µM in data set [2] (setting [6]) was found to be 79.4 ± 10.4%.

For `O=C(/C=C/c1c[nH]c2ccc([N+](=O)[O-])cc12)C[C@@H]1O[C@H](CO)[C@@H](O)[C@H](O)[C@H]1O` [Compound 10, (E)-4-(5-nitro-1H-indol-3-yl)-1-((2S,3R,4R,5S,6R)-3,4,5-trihydroxy-6-(hydroxymethyl)tetrahydro-2H-pyran-2-yl)but-3-en-2-one], the “Cell Viability (%) ± SD” value in data set [2] (MDA-MB-231, 10 µM, 10 µM) is recorded as 91.40 ± 10.38%; in data set [2] (MDA-MB-231, 25 µM, 25 µM), 84.49 ± 6.74%; in data set [2] (MDA-MB-231, 50 µM, 50 µM) it was 85.37 ± 14.16%.

Regarding `OC[C@H]1O[C@@H](CC2=NNC(c3c[nH]c4ccccc34)C2)[C@H](O)[C@@H](O)[C@@H]1O` (stereo partly drawn) [Compound 21, (2S,3R,4R,5S,6R)-2-((5-(1H-indol-3-yl)-4,5-dihydro-1H-pyrazol-3-yl)methyl)-6-(hydroxy-methyl)tetrahydro-2H-pyran-3,4,5-triol], the viability at 10 µM in data set [2] (setting [4]) was 73.5 ± 2.43%. Also, in data set [2] (setting [5]), the viability at 25 µM is 76.8 ± 2.43%. The viability at 50 µM in data set [2] (setting [6]) was determined as 75 ± 2.62%.

As for `OC[C@H]1O[C@@H](Cc2cc(-c3c[nH]c4ccc(Cl)cc34)on2)[C@H](O)[C@@H](O)[C@H]1O` [Compound 40, (2 S,3 R,4 R,5 R,6 R)-2-((5-(5-chloro-1H-indol-3-yl)isoxazol-3-yl)methyl)-6-(hydroxymethyl) tetrahydro-2H-pyran-3,4,5-triol], the viability at 10 µM in data set [2] (setting [4]) is 93.7 ± 2.68%. Besides, the viability at 25 µM in data set [2] (setting [5]) turned out to be 96 ± 1.81%. Also, the viability at 50 µM in data set [2] (setting [6]) was 87.9 ± 4.71%.
